Measured values published in ChEMBL document CHEMBL1201862, “PubChem BioAssay data set” (2004).
Where “and” joins values, the source holds several entries; their conditions need not be identical. Identical values can stand only once. Calls of active or inactive are those of the source.

Experiments:
Escherichia coli [1] = assay: microbe, parasite or virus in culture
[2] = cytotoxicity in HPDE-C7 cells, cell-based, fluorescence, HTS (AID 430); type: functional; conditions: Homo sapiens
Escherichia coli [3] = assay: microbe, parasite or virus in culture; remark: listed apart in the source
[4] = cytotoxicity in KRAS-transformed pancreatic duct cells, primary screen, cell-based, fluorescence, HTS (AID 431); type: functional; conditions: Homo sapiens;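 also: cell line used: HPDE-C7K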
HEK293 [5] = assay: NOD2 signaling inhibitors in MDP-stimulated cells, cell-based, uHTS, luminescence (AID 2001); type: functional; conditions: Homo sapiens
HEK293 [6] = assay: cells; type: functional, cell-based; conditions: Homo sapiens
HEK293 [7] = assay: cells; type: functional, cell-based; conditions: Homo sapiens; remark: listed apart in the source
HEK293 [8] = assay: cells; type: functional, cell-based; conditions: Homo sapiens; remark: listed apart in the source
[9] = HepG2 cell cytotoxicity, dose response, cytotoxicity control for Shn3 inhibitor project, CellTiter-Glo, cherry-picked (AID 624134); type: functional, cell-based
[10] = molecular target: T1, COUP transcription factor 2 (Homo sapiens, UniProt P24468); assay: Luminescence-based cell-based high throughput dose response assay to identify inhibitors of COUP-TFII (NR2F2).; type: functional;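 also: HEK293 cells transiently cotransfected with COUP-TFII expression vector and reporter; luciferase reporter luminescence driven by COUP-TFII from the pX2-168 reporter plasmid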
T1 sequence (P24468 whole entry): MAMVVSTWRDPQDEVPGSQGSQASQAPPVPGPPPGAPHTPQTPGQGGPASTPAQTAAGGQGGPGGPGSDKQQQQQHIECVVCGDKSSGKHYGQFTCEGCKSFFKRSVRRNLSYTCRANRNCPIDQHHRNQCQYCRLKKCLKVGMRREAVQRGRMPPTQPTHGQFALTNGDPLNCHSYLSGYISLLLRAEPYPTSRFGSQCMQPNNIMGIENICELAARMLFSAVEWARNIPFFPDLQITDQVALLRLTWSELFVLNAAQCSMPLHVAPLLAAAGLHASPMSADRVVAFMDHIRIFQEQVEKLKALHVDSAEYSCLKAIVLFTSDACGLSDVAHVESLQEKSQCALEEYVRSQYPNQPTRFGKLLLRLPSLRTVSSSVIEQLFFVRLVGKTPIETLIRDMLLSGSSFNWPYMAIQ

HEK293 [11] = assay: cells; conditions: Homo sapiens
[12] = molecular target: Nucleotide-binding oligomerization domain-containing protein 2 (Homo sapiens, UniProt Q9HC29); assay: NOD2 signaling inhibitors, cell-based, luminescence, uHTS, HEK293 (AID 1566); type: functional
Nucleotide-binding oligomerization domain-containing protein 2, sequence (Q9HC29 whole entry, the tested form may be a part): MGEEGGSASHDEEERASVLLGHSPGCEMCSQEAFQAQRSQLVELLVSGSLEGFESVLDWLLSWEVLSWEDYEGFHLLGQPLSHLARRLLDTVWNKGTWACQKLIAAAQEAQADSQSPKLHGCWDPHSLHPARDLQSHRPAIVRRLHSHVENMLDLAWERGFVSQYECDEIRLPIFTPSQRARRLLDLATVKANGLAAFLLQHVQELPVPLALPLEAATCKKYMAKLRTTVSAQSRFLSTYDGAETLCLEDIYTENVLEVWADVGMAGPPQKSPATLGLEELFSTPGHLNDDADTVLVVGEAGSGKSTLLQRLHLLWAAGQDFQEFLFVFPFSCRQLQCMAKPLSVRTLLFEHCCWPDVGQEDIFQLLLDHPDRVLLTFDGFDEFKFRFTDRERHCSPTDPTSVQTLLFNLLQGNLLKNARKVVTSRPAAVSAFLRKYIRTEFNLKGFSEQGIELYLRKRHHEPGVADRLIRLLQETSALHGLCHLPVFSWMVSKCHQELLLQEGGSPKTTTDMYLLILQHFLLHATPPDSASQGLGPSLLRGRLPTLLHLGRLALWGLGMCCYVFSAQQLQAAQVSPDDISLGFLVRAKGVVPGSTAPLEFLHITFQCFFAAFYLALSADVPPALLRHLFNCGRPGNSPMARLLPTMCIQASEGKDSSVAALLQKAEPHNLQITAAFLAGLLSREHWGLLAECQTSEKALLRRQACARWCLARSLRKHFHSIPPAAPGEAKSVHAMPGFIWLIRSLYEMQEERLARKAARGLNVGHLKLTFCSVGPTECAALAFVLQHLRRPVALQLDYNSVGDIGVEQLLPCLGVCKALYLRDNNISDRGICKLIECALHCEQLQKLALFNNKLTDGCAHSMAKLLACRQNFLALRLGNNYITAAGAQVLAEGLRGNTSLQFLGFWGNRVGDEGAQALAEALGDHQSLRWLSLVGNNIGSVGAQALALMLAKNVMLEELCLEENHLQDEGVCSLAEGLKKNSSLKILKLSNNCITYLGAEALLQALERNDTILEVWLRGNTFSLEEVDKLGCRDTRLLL

[13] = molecular target: T2, Nucleotide-binding oligomerization domain-containing protein 1 (Homo sapiens, UniProt Q9Y239); assay: NOD1 signaling inhibitors, SAR follow-up, revised (AID 2333); type: functional
T2 sequence (Q9Y239 whole entry): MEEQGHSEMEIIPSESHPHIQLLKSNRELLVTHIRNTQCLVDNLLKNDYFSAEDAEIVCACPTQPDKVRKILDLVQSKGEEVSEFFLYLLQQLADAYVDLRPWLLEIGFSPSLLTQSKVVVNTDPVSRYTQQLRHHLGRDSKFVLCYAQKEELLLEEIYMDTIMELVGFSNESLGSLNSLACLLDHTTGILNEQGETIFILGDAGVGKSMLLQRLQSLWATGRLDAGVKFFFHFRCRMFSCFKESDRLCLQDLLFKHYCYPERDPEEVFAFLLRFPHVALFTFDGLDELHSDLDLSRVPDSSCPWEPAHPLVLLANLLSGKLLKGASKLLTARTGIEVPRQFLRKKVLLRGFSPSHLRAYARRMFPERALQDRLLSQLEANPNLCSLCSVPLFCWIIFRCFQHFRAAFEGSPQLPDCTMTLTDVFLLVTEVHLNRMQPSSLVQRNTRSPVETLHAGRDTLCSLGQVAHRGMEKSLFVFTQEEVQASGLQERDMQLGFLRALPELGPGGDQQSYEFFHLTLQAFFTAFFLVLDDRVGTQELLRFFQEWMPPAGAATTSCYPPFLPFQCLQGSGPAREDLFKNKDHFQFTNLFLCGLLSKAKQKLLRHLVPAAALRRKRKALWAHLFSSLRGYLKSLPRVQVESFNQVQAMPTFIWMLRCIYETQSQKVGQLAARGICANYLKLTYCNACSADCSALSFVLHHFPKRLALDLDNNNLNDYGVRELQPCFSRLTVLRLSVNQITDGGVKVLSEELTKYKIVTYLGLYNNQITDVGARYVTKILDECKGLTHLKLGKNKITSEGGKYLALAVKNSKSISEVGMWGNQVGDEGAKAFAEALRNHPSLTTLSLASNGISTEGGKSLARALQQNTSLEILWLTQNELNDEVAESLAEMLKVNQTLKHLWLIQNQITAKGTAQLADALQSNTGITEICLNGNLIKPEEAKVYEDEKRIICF

[14] = cytotoxicity in HEK-293T NF-kB-Luc cells, dose response, cytotoxicity control for B/T-cell NF-kB inhibitor project, cell-based, uHTS hits (AID 489019); type: functional;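 also: IC50 reflects cytotoxicity as loss of cell viability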
Tumor necrosis factor = Tumor necrosis factor (Homo sapiens, UniProt P01375); assay: TNFa-triggered NF-kB activation inhibitors, SAR follow-up, cell-based, revised (AID 2337); type: functional
Tumor necrosis factor, sequence (P01375 whole entry): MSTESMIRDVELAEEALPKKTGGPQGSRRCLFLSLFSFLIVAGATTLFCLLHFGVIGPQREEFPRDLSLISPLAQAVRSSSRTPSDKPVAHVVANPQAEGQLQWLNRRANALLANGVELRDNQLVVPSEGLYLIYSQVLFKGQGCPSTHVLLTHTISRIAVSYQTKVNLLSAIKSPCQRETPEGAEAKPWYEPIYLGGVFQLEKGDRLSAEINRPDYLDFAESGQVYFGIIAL

Jurkat = assay: antigen receptor-induced NF-kB inhibitors, dose response, Jurkat, luciferase reporter, luminescence, B- and T-cell (AID 489004); type: functional, cell-based; conditions: Homo sapiens;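 also: NF-kB luciferase reporter Jurkat cells stimulated with PMA plus ionomycin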
[15] = Shn3 3'UTR reporter inhibitors, dose response, cell-based, Clone20 osteoblasts, firefly luciferase, cherry-picked (AID 624132); type: functional;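 also: firefly luciferase luminescence from reporter carrying the Shn3 3'UTR in osteoblasts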
[16] = control 3'UTR Renilla luciferase suppression, dose response, counter-screen for Shn3 inhibitor project, cell-based, Clone20-Shn3RL, cherry-picked (AID 624133); type: functional
INS1 = assay: beta cell apoptosis inhibitors, cytokine rescue, dose response, luminescence, retest (AID 449756); type: functional, cell-based; conditions: Rattus norvegicus;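 also: cell death triggered by IL-1 beta plus TNF-alpha plus IFN-gamma mixture; protective hits raise ATP signal compared with cytokine alone wells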
HEK293 [17] = assay: NOD1 signaling inhibitors, primary screen, cell-based, luminescence, uHTS (AID 1578); type: functional; conditions: Homo sapiens

## CCOC(=O)CC(=O)Nc1ccccc1C(=O)O
Escherichia coli [1]
  AC50: 27 µM (active)

## CC(C)CCNC(=O)c1c(N)n(CC2CCCO2)c2nc3ccccc3nc12 (stereo not given)
[2]
  EC50: 13.2 µM (active)
Escherichia coli [3]
  AC50: 16.3 µM (active)
[4]
  EC50: 13.6 µM (active)

## Cn1nccc1C(=O)NC1CCCc2c1cnn2-c1ccccc1F (stereo not given)
HEK293 [5]
  IC50: 2.71 µM (active)
HEK293 [6]
  IC50: > 20 µM (inactive)
HEK293 [7]
  IC50: 2.36 µM (active)
HEK293 [8]
  IC50: 13.8 µM (active)
[9]
  AC50: 0.472 µM (active)
[10]
  IC50: 1.51 µM (active)
HEK293 [11]
  IC50: > 20 µM (inactive)
[12]
  EC50: 0.61 µM (active)
[13]
  IC50: 968 nM (active) and 825 nM (active)
[14]
  IC50: > 80 µM (inactive)
Tumor necrosis factor
  IC50: 4.28 µM (active) and 14.6 µM (active)
Jurkat
  IC50: > 80 µM (inactive)
[15]
  AC50: 0.37 µM (active)
[16]
  AC50: 3.96 µM (active)
INS1
  AC50: 2.26 µM (active)
HEK293 [17]
  EC50: 0.62 µM (active)
